The text below walks through data of US9155765B2, “Establishment of patient- or person-specific cardiac myocyte cell lines from human induced pluripotent stem cells (iPSCs)” (Baylor Research Institute, priority 2011, dated 2015).

The experiment has as its system derived cardiac cell line. Nature of the experiment: Effect of hypertrophy inducing drugs on derived cardiac cell line (cell size change). The settings on record: 24 hrs after drug administration; phase-contrast images before and after (FIG. 8). Type of experiment: cell-based, human. As for the experimental part: The effect of hypertrophy inducing drugs on derived cardiac cell line was tested. A response to cardiac toxic reagents is important in evaluating the properties of derived cardiac cell line and the future usage of the cells for testing cardiac toxic reagents as well as the mechanistic study on cardiomyopathy. Tumor necrosis factor (TNF)-α was used for the induction and compared the cell size changes at 24 hrs after drug administration.

For the substance Tumor necrosis factor (TNF)-α [TNF-α], the cell size changes result is recorded as “increase in the sizes of treated cardiac cells”.
